Reference: ChEMBL document CHEMBL3286313 (J Med Chem, 2014)
pEC50, pIC50, pKi: −log10 of the molar value.

molecular target: T1, D(2) dopamine receptor (Homo sapiens, UniProt P14416); assay: not given
T1 sequence (P14416 whole entry): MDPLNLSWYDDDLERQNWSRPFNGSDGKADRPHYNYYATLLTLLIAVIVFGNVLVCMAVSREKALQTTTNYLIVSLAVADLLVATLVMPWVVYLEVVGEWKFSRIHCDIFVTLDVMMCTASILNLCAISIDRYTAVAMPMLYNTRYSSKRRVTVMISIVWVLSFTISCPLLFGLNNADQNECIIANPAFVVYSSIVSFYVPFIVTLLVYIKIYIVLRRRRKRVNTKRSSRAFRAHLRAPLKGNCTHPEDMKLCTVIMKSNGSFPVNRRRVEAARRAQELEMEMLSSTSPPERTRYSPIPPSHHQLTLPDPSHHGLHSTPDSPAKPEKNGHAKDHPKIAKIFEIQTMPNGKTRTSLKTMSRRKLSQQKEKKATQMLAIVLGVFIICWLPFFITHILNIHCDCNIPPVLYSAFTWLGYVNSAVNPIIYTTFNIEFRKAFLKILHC

Row | pEC50 | SMILES
1 | 6.57 | O/N=C/c1cnn2ccc(OCCCCN3CCN(c4cccc(Cl)c4Cl)CC3)cc12 (stereo in doubt; 8a)
2 | 6.27 | OCc1cc2cc(OCCCCN3CCN(c4cccc(Cl)c4Cl)CC3)ccn2n1
3 | 5.89 | Clc1cccc(N2CCN(CCCCOc3ccc4ccnn4c3)CC2)c1Cl
4 | 7.01 | N#Cc1cc2cc(OCCCCN3CCN(c4cccc(Cl)c4Cl)CC3)ccn2n1
5 | 6.74 | Clc1cccc(N2CCN(CCCCOc3ccn4nccc4c3)CC2)c1Cl
6 | 6.62 | O/N=C/c1cnn2ccc(OCCCCN3CCN(c4cccc(Cl)c4Cl)CC3)cc12 (stereo in doubt; 8b)
7 | 6.96 | N#Cc1cnn2ccc(OCCCCN3CCN(c4cccc(Cl)c4Cl)CC3)cc12
8 | 6.47 | O=Cc1cnn2cc(OCCCCN3CCN(c4cccc(Cl)c4Cl)CC3)ccc12

molecular target: 5-hydroxytryptamine receptor 2A (Homo sapiens, UniProt P28223); assay: biochemical; type: cell-based, HEK293
Sequence (P28223 whole entry): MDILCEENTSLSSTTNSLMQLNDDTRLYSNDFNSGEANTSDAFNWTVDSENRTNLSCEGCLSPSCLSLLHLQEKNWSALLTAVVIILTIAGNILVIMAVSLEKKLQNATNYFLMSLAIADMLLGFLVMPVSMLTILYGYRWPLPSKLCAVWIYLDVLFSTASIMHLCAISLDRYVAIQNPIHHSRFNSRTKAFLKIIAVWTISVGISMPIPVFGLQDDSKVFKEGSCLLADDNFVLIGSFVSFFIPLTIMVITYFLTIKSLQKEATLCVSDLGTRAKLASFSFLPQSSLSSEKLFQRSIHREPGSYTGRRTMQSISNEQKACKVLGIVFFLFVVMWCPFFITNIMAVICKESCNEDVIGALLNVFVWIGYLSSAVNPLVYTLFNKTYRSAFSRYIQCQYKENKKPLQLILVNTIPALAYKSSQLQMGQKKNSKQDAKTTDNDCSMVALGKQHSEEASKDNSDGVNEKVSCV

Row | pKi | SMILES
9 | 8.11 | O/N=C/c1cnn2ccc(OCCCCN3CCN(c4cccc(Cl)c4Cl)CC3)cc12 (stereo in doubt; 8a)
10 | 7.80 | OCc1cc2cc(OCCCCN3CCN(c4cccc(Cl)c4Cl)CC3)ccn2n1
11 | 7.09 | N#Cc1cc2cc(OCCCCN3CCN(c4cccc(Cl)c4Cl)CC3)ccn2n1
12 | 8.40 | O/N=C/c1cnn2ccc(OCCCCN3CCN(c4cccc(Cl)c4Cl)CC3)cc12 (stereo in doubt; 8b)
13 | 6.31 | N#Cc1cnn2ccc(OCCCCN3CCN(c4cccc(Cl)c4Cl)CC3)cc12

molecular target: D(1A) dopamine receptor (Homo sapiens, UniProt P21728); assay: biochemical; type: cell-based, HEK293
Sequence (P21728 whole entry): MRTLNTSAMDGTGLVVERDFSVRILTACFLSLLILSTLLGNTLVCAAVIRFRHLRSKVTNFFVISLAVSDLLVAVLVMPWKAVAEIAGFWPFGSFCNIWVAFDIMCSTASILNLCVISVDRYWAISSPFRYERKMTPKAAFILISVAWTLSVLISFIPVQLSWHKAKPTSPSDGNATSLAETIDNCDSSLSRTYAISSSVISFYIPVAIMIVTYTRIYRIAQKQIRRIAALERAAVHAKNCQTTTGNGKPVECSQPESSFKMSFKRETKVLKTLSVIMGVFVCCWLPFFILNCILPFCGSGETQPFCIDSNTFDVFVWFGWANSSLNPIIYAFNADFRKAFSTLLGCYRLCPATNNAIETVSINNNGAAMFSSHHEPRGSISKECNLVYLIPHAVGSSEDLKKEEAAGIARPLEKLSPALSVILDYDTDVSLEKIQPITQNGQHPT

Row | pKi | SMILES
14 | 5.37 | O/N=C/c1cnn2ccc(OCCCCN3CCN(c4cccc(Cl)c4Cl)CC3)cc12 (stereo in doubt; 8a)
15 | 6.62 | OCc1cc2cc(OCCCCN3CCN(c4cccc(Cl)c4Cl)CC3)ccn2n1
16 | 5.46 | N#Cc1cc2cc(OCCCCN3CCN(c4cccc(Cl)c4Cl)CC3)ccn2n1
17 | 6.17 | O/N=C/c1cnn2ccc(OCCCCN3CCN(c4cccc(Cl)c4Cl)CC3)cc12 (stereo in doubt; 8b)
18 | 6.03 | N#Cc1cnn2ccc(OCCCCN3CCN(c4cccc(Cl)c4Cl)CC3)cc12

molecular target: T1, D(2) dopamine receptor; assay: biochemical; type: cell-based, CHO

Row | pKi | SMILES
19 | 8.74 | O/N=C/c1cnn2ccc(OCCCCN3CCN(c4cccc(Cl)c4Cl)CC3)cc12 (stereo in doubt; 8a)
20 | 8.51 | OCc1cc2cc(OCCCCN3CCN(c4cccc(Cl)c4Cl)CC3)ccn2n1
21 | 8.38 | Clc1cccc(N2CCN(CCCCOc3ccc4ccnn4c3)CC2)c1Cl
22 | 8.05 | N#Cc1cc2cc(OCCCCN3CCN(c4cccc(Cl)c4Cl)CC3)ccn2n1
23 | 7.47 | Clc1cccc(N2CCN(CCCCOc3ccn4nccc4c3)CC2)c1Cl
24 | 9.77 | O/N=C/c1cnn2ccc(OCCCCN3CCN(c4cccc(Cl)c4Cl)CC3)cc12 (stereo in doubt; 8b)
25 | 9.24 | N#Cc1cnn2ccc(OCCCCN3CCN(c4cccc(Cl)c4Cl)CC3)cc12
26 | 8.21 | O=Cc1cnn2cc(OCCCCN3CCN(c4cccc(Cl)c4Cl)CC3)ccc12

molecular target: T1, D(2) dopamine receptor; assay: biochemical; type: cell-based, CHO; remark: another data set of the same source

Row | pKi | SMILES
27 | 8.77 | O/N=C/c1cnn2ccc(OCCCCN3CCN(c4cccc(Cl)c4Cl)CC3)cc12 (stereo in doubt; 8a)
28 | 8.64 | OCc1cc2cc(OCCCCN3CCN(c4cccc(Cl)c4Cl)CC3)ccn2n1
29 | 8.68 | Clc1cccc(N2CCN(CCCCOc3ccc4ccnn4c3)CC2)c1Cl
30 | 8.17 | N#Cc1cc2cc(OCCCCN3CCN(c4cccc(Cl)c4Cl)CC3)ccn2n1
31 | 7.41 | Clc1cccc(N2CCN(CCCCOc3ccn4nccc4c3)CC2)c1Cl
32 | 9.60 | O/N=C/c1cnn2ccc(OCCCCN3CCN(c4cccc(Cl)c4Cl)CC3)cc12 (stereo in doubt; 8b)
33 | 9.49 | N#Cc1cnn2ccc(OCCCCN3CCN(c4cccc(Cl)c4Cl)CC3)cc12
34 | 8.09 | O=Cc1cnn2cc(OCCCCN3CCN(c4cccc(Cl)c4Cl)CC3)ccc12

molecular target: T2, D(4) dopamine receptor (Homo sapiens, UniProt P21917); assay: biochemical; type: cell-based, CHO
T2 sequence (P21917 whole entry): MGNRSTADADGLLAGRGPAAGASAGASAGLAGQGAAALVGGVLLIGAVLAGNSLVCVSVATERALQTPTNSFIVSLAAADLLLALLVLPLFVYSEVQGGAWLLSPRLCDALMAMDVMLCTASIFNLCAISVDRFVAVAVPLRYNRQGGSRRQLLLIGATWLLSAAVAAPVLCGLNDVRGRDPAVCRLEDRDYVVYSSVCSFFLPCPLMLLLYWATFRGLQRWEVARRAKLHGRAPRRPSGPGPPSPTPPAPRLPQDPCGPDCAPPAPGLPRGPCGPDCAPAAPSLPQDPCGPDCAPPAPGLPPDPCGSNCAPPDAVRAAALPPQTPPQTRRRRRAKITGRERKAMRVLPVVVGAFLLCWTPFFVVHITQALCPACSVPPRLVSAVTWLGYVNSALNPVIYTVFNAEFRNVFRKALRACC

Row | pKi | SMILES
35 | 8.28 | O/N=C/c1cnn2ccc(OCCCCN3CCN(c4cccc(Cl)c4Cl)CC3)cc12 (stereo in doubt; 8a)
36 | 7.46 | OCc1cc2cc(OCCCCN3CCN(c4cccc(Cl)c4Cl)CC3)ccn2n1
37 | 8.36 | Clc1cccc(N2CCN(CCCCOc3ccc4ccnn4c3)CC2)c1Cl
38 | 8.03 | N#Cc1cc2cc(OCCCCN3CCN(c4cccc(Cl)c4Cl)CC3)ccn2n1
39 | 6.89 | Clc1cccc(N2CCN(CCCCOc3ccn4nccc4c3)CC2)c1Cl
40 | 8.22 | O/N=C/c1cnn2ccc(OCCCCN3CCN(c4cccc(Cl)c4Cl)CC3)cc12 (stereo in doubt; 8b)
41 | 8.24 | N#Cc1cnn2ccc(OCCCCN3CCN(c4cccc(Cl)c4Cl)CC3)cc12
42 | 7.74 | O=Cc1cnn2cc(OCCCCN3CCN(c4cccc(Cl)c4Cl)CC3)ccc12

molecular target: T3, D(3) dopamine receptor (Homo sapiens, UniProt P35462); assay: not given; type: functional, cell-based, HEK293
T3 sequence (P35462 whole entry): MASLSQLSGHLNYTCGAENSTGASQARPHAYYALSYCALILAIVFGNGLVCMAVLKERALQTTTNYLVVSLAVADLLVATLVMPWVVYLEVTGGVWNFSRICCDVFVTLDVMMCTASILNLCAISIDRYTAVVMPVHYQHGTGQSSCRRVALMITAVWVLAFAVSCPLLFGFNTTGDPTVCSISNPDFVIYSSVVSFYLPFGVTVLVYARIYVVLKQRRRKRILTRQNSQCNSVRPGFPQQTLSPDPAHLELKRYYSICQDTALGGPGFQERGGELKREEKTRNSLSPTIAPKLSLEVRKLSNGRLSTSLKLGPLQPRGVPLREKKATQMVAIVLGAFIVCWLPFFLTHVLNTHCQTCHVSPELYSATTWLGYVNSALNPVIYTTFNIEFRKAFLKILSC

Row | pEC50 | SMILES
43 | 7.38 | O/N=C/c1cnn2ccc(OCCCCN3CCN(c4cccc(Cl)c4Cl)CC3)cc12 (stereo in doubt; 8a)
44 | 8.23 | OCc1cc2cc(OCCCCN3CCN(c4cccc(Cl)c4Cl)CC3)ccn2n1
45 | 7.39 | Clc1cccc(N2CCN(CCCCOc3ccc4ccnn4c3)CC2)c1Cl
46 | 7.39 | N#Cc1cc2cc(OCCCCN3CCN(c4cccc(Cl)c4Cl)CC3)ccn2n1
47 | 7.18 | Clc1cccc(N2CCN(CCCCOc3ccn4nccc4c3)CC2)c1Cl
48 | 7.41 | O/N=C/c1cnn2ccc(OCCCCN3CCN(c4cccc(Cl)c4Cl)CC3)cc12 (stereo in doubt; 8b)
49 | 7.92 | N#Cc1cnn2ccc(OCCCCN3CCN(c4cccc(Cl)c4Cl)CC3)cc12
50 | 6.96 | O=Cc1cnn2cc(OCCCCN3CCN(c4cccc(Cl)c4Cl)CC3)ccc12

molecular target: T3, D(3) dopamine receptor; assay: biochemical; type: cell-based, CHO

Row | pKi | SMILES
51 | 8.64 | O/N=C/c1cnn2ccc(OCCCCN3CCN(c4cccc(Cl)c4Cl)CC3)cc12 (stereo in doubt; 8a)
52 | 8.89 | OCc1cc2cc(OCCCCN3CCN(c4cccc(Cl)c4Cl)CC3)ccn2n1
53 | 8.64 | Clc1cccc(N2CCN(CCCCOc3ccc4ccnn4c3)CC2)c1Cl
54 | 8.72 | N#Cc1cc2cc(OCCCCN3CCN(c4cccc(Cl)c4Cl)CC3)ccn2n1
55 | 8.15 | Clc1cccc(N2CCN(CCCCOc3ccn4nccc4c3)CC2)c1Cl
56 | 9.16 | O/N=C/c1cnn2ccc(OCCCCN3CCN(c4cccc(Cl)c4Cl)CC3)cc12 (stereo in doubt; 8b)
57 | 8.82 | N#Cc1cnn2ccc(OCCCCN3CCN(c4cccc(Cl)c4Cl)CC3)cc12
58 | 8.70 | O=Cc1cnn2cc(OCCCCN3CCN(c4cccc(Cl)c4Cl)CC3)ccc12

molecular target: T1, D(2) dopamine receptor; assay: not given; remark: another data set of the same source

Row | pIC50 | SMILES
59 | 8.42 | O/N=C/c1cnn2ccc(OCCCCN3CCN(c4cccc(Cl)c4Cl)CC3)cc12 (stereo in doubt; 8b)
